pIC50: −log10 of the molar value. Active and inactive are the calls of the source. No cut-off for these calls is given here.
Columns and labels:
SMMC-7721 [1] = assay: Antiproliferative activity against human SMMC-7721 cells assessed as inhibition of cell growth incubated for 48 hrs by CCK-8 reagent based spectrophotometric analysis; format: functional; conditions: SMMC-7721, 48 h
SW-620 = assay: Antiproliferative activity against human SW620 cells assessed as inhibition of cell growth incubated for 48 hrs by CCK-8 reagent based spectrophotometric analysis; format: functional; conditions: SW-620, 48 h
HepG2 = assay: Antiproliferative activity against human HepG2 cells assessed as inhibition of cell growth incubated for 48 hrs by CCK-8 reagent based spectrophotometric analysis; format: functional; conditions: HepG2, 48 h
KYSE-150 cell line = assay: Antiproliferative activity against human KYSE-150 cell line assessed as inhibition of cell growth incubated for 48 hrs by CCK-8 reagent based spectrophotometric analysis; format: functional; conditions: KYSE-150, 48 h
A549 = assay: Antiproliferative activity against human A549 cells assessed as inhibition of cell growth incubated for 48 hrs by CCK-8 reagent based spectrophotometric analysis; format: functional; conditions: A549, 48 h
PC-3 = assay: Antiproliferative activity against human PC-3 cells assessed as inhibition of cell growth incubated for 48 hrs by CCK-8 reagent based spectrophotometric analysis; format: functional; conditions: PC-3, 48 h
MCF7 = assay: Antiproliferative activity against human MCF7 cells assessed as inhibition of cell growth incubated for 48 hrs by CCK-8 reagent based spectrophotometric analysis; format: functional; conditions: MCF7, 48 h
HeLa = assay: Antiproliferative activity against human HeLa cells assessed as inhibition of cell growth incubated for 48 hrs by CCK-8 reagent based spectrophotometric analysis; format: functional
[2] = Aqueous solubility of the compound in […] by HPLC analysis; format: physicochemical
SMMC-7721 [3] = assay: Antitumor activity against human SMMC-7721 cells xenografted in BALB/c mouse assessed as reduction in tumor weight at 25 mg/kg,ip administrated 3 times weekly for 3 weeks; format: functional, organism-based
SMMC-7721 [4] = assay: Antitumor activity against human SMMC-7721 cells xenografted in BALB/c mouse assessed as reduction in tumor weight at 25 mg/kg,ip administrated 3 times weekly for 3 weeks (reference value: 0.573 +/- 0.137 g); format: functional
SMMC-7721 [5] = assay: Antitumor activity against human SMMC-7721 cells xenografted in BALB/c mouse assessed as inhibition of tumor growth at 25 mg/kg,ip administrated 3 times weekly for 3 weeks relative to control; format: functional; design: scale not given: the % may be the effect or the level left
SMMC-7721 [6] = assay: Antitumor activity against human SMMC-7721 cells xenografted in BALB/c mouse assessed as reduction in tumor growth at 25 mg/kg,ip administrated 3 times weekly for 3 weeks; format: functional, organism-based

Row | SMILES | pIC50 (SMMC-7721 [1]) | pIC50 (SW-620) | pIC50 (HepG2) | pIC50 (KYSE-150 cell line) | pIC50 (A549) | pIC50 (PC-3) | pIC50 (MCF7) | pIC50 (HeLa) | solubility [2] [µM] | Activity (SMMC-7721 [3]) | Activity (SMMC-7721 [4]) [g] | Activity (SMMC-7721 [5]) [%] | Activity (SMMC-7721 [6])
1 | C=C(C)[C@@H]1CC[C@]2(C(=O)OC)CC[C@]3(C)[C@H](CC[C@@H]4[C@@]5(C)C[C@@H](Cc6cn([C@]7(CO)O[C@@H](n8ccc(O)nc8=O)[C@H](O)[C@@H]7O)nn6)C(=O)C(C)(C)[C@@H]5CC[C@]43C)[C@@H]12 | 4.39 | 4.72 | 4.20 | 4.44 | 4.15 | 4.34 | 4.26 | 4.56 |  |  |  |  | 
2 | C=C(C)[C@@H]1CC[C@]2(C(=O)O)CC[C@]3(C)[C@H](CC[C@@H]4[C@@]5(C)CC[C@H](O)C(C)(C)[C@@H]5CC[C@]43C)[C@@H]12 [BETULINIC ACID] | 4.36 | 4.26 | 4.40 | 4.62 | 4.16 | < 4.00 | 4.26 | 4.50 | < 0.11 |  |  |  | 
3 | C=C(C)[C@@H]1CC[C@]2(C(=O)O)CC[C@]3(C)[C@H](CC[C@@H]4[C@@]5(C)C[C@@H](Cc6cn([C@]7(CO)O[C@@H](n8ccc(N)nc8=O)[C@@H](F)[C@@H]7O)nn6)[C@H](O)C(C)(C)[C@@H]5CC[C@]43C)[C@@H]12 | < 4.00 | < 4.00 | < 4.00 | < 4.00 | < 4.00 | < 4.00 | < 4.00 | < 4.00 |  |  |  |  | 
4 | CC(=O)O[C@H]1C(=O)[C@@]2(C)[C@H]([C@H](OC(=O)c3ccccc3)[C@]3(O)C[C@H](OC(=O)[C@H](O)[C@@H](NC(=O)c4ccccc4)c4ccccc4)C(C)=C1C3(C)C)[C@]1(OC(C)=O)CO[C@@H]1C[C@@H]2O [PACLITAXEL] |  |  |  |  |  |  |  |  |  | inactive | 0.22 | 61.6 | inactive
5 | C=C(C)[C@@H]1CC[C@]2(C(=O)OC)CC[C@]3(C)[C@H](CC[C@@H]4[C@@]5(C)C[C@@H](Cc6cn([C@]7(CO)O[C@@H](n8ccc(N)nc8=O)[C@H](O)[C@@H]7O)nn6)C(=O)C(C)(C)[C@@H]5CC[C@]43C)[C@@H]12 | 4.16 | 4.45 | < 4.00 | 4.16 | < 4.00 | < 4.00 | < 4.00 | 4.39 |  |  |  |  | 
6 | C=C(C)[C@@H]1CC[C@]2(C(=O)O)CC[C@]3(C)[C@H](CC[C@@H]4[C@@]5(C)C[C@@H](Cc6cn([C@]7(CO)O[C@@H](n8ccc(O)nc8=O)[C@@H](F)[C@@H]7O)nn6)[C@H](O)C(C)(C)[C@@H]5CC[C@]43C)[C@@H]12 | < 4.00 | < 4.00 | < 4.00 | < 4.00 | < 4.00 | < 4.00 | < 4.00 | < 4.00 |  |  |  |  | 
7 | C=C(C)[C@@H]1CC[C@]2(C(=O)O)CC[C@]3(C)[C@H](CC[C@@H]4[C@@]5(C)C[C@@H](Cc6cn([C@]7(CO)O[C@@H](n8ccc(O)nc8=O)[C@H](O)[C@@H]7O)nn6)[C@H](O)C(C)(C)[C@@H]5CC[C@]43C)[C@@H]12 | < 4.00 | < 4.00 | < 4.00 | < 4.00 | < 4.00 | < 4.00 | < 4.00 | < 4.00 |  |  |  |  | 
8 | C=C(C)[C@@H]1CC[C@]2(C(=O)OC)CC[C@]3(C)[C@H](CC[C@@H]4[C@@]5(C)C[C@@H](Cc6cn([C@]7(CO)O[C@@H](n8ccc(N)nc8=O)[C@H](O)[C@@H]7O)nn6)[C@H](O)C(C)(C)[C@@H]5CC[C@]43C)[C@@H]12 | 4.17 | 4.31 | 4.07 | 4.68 | < 4.00 | < 4.00 | 4.06 | 4.34 |  |  |  |  | 
9 | C=C(C)[C@@H]1CC[C@]2(C(=O)OC)CC[C@]3(C)[C@H](CC[C@@H]4[C@@]5(C)C[C@@H](Cc6cn([C@]7(CO)O[C@@H](n8ccc(N)nc8=O)[C@@H](F)[C@@H]7O)nn6)C(=O)C(C)(C)[C@@H]5CC[C@]43C)[C@@H]12 | 4.28 | 4.51 | 4.16 | 4.72 | < 4.00 | < 4.00 | 4.21 | 4.55 |  |  |  |  | 
10 | C=C(C)[C@@H]1CC[C@]2(C(=O)O)CC[C@]3(C)[C@H](CC[C@@H]4[C@@]5(C)C[C@@H](Cc6cn([C@]7(CO)O[C@@H](n8ccc(N)nc8=O)[C@H](O)[C@@H]7O)nn6)[C@H](O)C(C)(C)[C@@H]5CC[C@]43C)[C@@H]12 | 4.77 | 4.55 | 4.14 | 4.37 | < 4.00 | 4.06 | 4.21 | 4.82 |  |  |  |  | 
11 | C=C(C)[C@@H]1CC[C@]2(C(=O)OC)CC[C@]3(C)[C@H](CC[C@@H]4[C@@]5(C)C[C@@H](Cc6cn([C@]7(CO)O[C@@H](n8ccc(N)nc8=O)[C@@H](F)[C@@H]7O)nn6)[C@H](O)C(C)(C)[C@@H]5CC[C@]43C)[C@@H]12 | 4.15 | 4.74 | 4.25 | 4.53 | < 4.00 | < 4.00 | 4.15 | 4.62 |  |  |  |  | 
12 | C=C(C)[C@@H]1CC[C@]2(C(=O)OC)CC[C@]3(C)[C@H](CC[C@@H]4[C@@]5(C)C[C@@H](Cc6cn([C@]7(CO)O[C@@H](n8ccc(O)nc8=O)[C@H](O)[C@@H]7O)nn6)[C@H](O)C(C)(C)[C@@H]5CC[C@]43C)[C@@H]12 | 4.43 | 4.59 | 4.35 | 4.69 | 4.27 | 4.39 | 4.58 | 4.70 |  |  |  |  | 
13 | C=C(C)[C@@H]1CC[C@]2(C(=O)O)CC[C@]3(C)[C@H](CC[C@@H]4[C@@]5(C)C[C@@H](Cc6cn([C@H]7C[C@H](n8cc(C)c(O)nc8=O)O[C@@H]7CO)nn6)[C@H](O)C(C)(C)[C@@H]5CC[C@]43C)[C@@H]12 | 4.83 | 4.76 | 4.42 | 5.12 | 4.19 | 4.58 | 5.15 | 4.79 |  |  |  |  | 
14 | C=C(C)[C@@H]1CC[C@]2(C(=O)OC)CC[C@]3(C)[C@H](CC[C@@H]4[C@@]5(C)C[C@@H](Cc6cn([C@]7(CO)O[C@@H](n8ccc(O)nc8=O)[C@@H](F)[C@@H]7O)nn6)[C@H](O)C(C)(C)[C@@H]5CC[C@]43C)[C@@H]12 | 4.61 | 4.82 | 4.43 | 4.97 | 4.44 | 4.63 | 4.63 | 4.82 |  |  |  |  | 
15 | C=C(C)[C@@H]1CC[C@]2(C(=O)OC)CC[C@]3(C)[C@H](CC[C@@H]4[C@@]5(C)C[C@@H](Cc6cn([C@H]7C[C@H](n8cc(C)c(O)nc8=O)O[C@@H]7CO)nn6)[C@H](O)C(C)(C)[C@@H]5CC[C@]43C)[C@@H]12 | 4.49 | 5.06 | 4.71 | 5.11 | 4.39 | 4.74 | 4.40 | 4.69 |  |  |  |  | 
16 | Cc1cn([C@H]2C[C@H](N=[N+]=[N-])[C@@H](CO)O2)c(=O)[nH]c1=O [ZIDOVUDINE] | < 4.00 | < 4.00 | < 4.00 | < 4.00 | 4.68 | < 4.00 | < 4.00 | < 4.00 |  |  |  |  | 

Reference: ChEMBL document CHEMBL5608177, “Antitumor activity and transcriptome sequencing (RNA-seq) analyses of hepatocellular carcinoma cells in response to exposure triterpene-nucleoside conjugates” (Eur J Med Chem, 2024)
